According to PubChem BioAssay AID1963868 (Molecular Pharmacology Branch, DTP, NCI, 2024):

Test system: KRAS PDC tumor spheroids (HUVEC+MSC), viability
Assay: Anticancer human tumor 254851-301-R-J1-PDC patient-derived colon carcinoma cell line growth inhibition [KRAS2]
Conditions: for IC50: curve of first compound; for viability, T/C: stronger effect = lower value
Excerpt: Multicellular complex tumor spheroid response to RAS pathway inhibitors in combination with a targeted agents in patient-derived cell lines with oncogenic KRAS variants from multiple cancer types
A high-throughput screen of multi-cell type tumor spheroids was designed to identify active combinations of targeted small molecules and KRAS pathway inhibitors. Complex spheroids include a stromal component modeled by human endothelial cells (HUVEC) and fibroblasts modeled by human mesenchymal stem cells (MSCs). The concentration ranges selected for each drug and investigational agent were based upon clinically achievable concentrations if the clinical Cmax of the agent was known.
Compounds. The drugs and investigational agents: BI-3406 (NSC825286), BAY-293 (NSC824723), batoprotafib (TNO155; NSC825523), sotorasib (AMG 510; NSC818433), MRTX1257 (NSC819558), elimusertib (BAY 1895344; NSC800525), molibresib (GSK525762; NSC774829), temuterkib (LY3214996; NSC803410), venetoclax (NSC766270), alisertib (NSC759677), olaparib (NSC753686), talazoparib (NSC767125), erdafitinib (NSC781556), ipatasertib (NSC767898), cabozantinib (NSC761068), nintedanib (NSC756659), abemaciclib (NSC768073), docetaxel (NSC628503), trametinib (NSC758246), and sapanisertib (NSC764658) were obtained from the National Cancer Institute (NCI) Developmental Therapeutics Program Chemical Repository. The FDA-approved anticancer drug set is available from the Developmental Therapeutics Program. […] The stock solutions were prepared in dimethyl sulfoxide (DMSO, Sigma-Aldrich, St. Louis, MO, cat. D2650) at 800-fold the tested concentration and stored at -70 degrees C prior to their use. All drugs and investigational agents were tested over a range starting from a high concentration at or near the clinical Cmax and decreasing in half-log increments. If the clinical Cmax for an agent had not been determined, the highest concentration tested was 10 microM.
Cell Culture. All cells were maintained in an incubator at 37 degrees C and 5% CO2 with 95% humidity. The PDC lines were cultured according to standard operating procedures established by the NCI PDMR (https://pdmr.cancer.gov/sops/default.htm). Briefly, all PDCs were thawed and cultured in Matrigel-coated flasks prepared with a working solution of 1X Ham's F-12 nutrient mix, without supplementation (Invitrogen, Waltham, MA, cat. 11765054), 100 U/mL penicillin-streptomycin (Invitrogen, cat. 15140122), and 2.5% Matrigel (Corning Inc., Corning, NY, cat. 354248) for the first three passages. All PDCs were cultured in complete DMEM/F-12 media containing advanced DMEM/F-12 (Invitrogen, cat. 12634028), 4.9% defined fetal bovine serum, heat inactivated (HyClone Laboratories Inc., Logan, UT, cat. SH30070.03HI), 389 ng/mL hydrocortisone (Sigma-Aldrich, cat. H4001), 9.7 ng/mL human EGF recombinant protein (Invitrogen, cat. PHG0313), 23.4 microg/mL adenine (Sigma-Aldrich, cat. A2786), 97.3 U/mL penicillin-streptomycin (Invitrogen, cat. 15140122), 1.9 mM L-glutamine (Invitrogen, cat. 25030081), and 9.7 microM Y-27632 dihydrochloride (Tocris Bioscience, Bristol, United Kingdom, cat. 1254). The PDCs were cultured in complete DMEM/F12 media without 9.7 microM Y-27632 dihydrochloride for at least two passages prior to the screen. The established cell line HOP-62 was cultured in RPMI 1640 medium, HEPES (Invitrogen, cat. 22400105) with 10% defined fetal bovine serum (HyClone Laboratories Inc., cat. SH30070.03) and 2 mM L-glutamine (Invitrogen, cat. 25030081). The pooled donor HUVEC were cultured in endothelial cell growth medium 2 (PromoCell, Heidelberg, Germany, cat. C-22011) and the hMSC were cultured in mesenchymal stem cell growth medium 2 (PromoCell, cat. C-28009). For all experiments, HUVEC and hMSC were used at passages </=5, while the malignant cell lines were used at passages </=15. […]

[1] = second compound 0.1 µM, first compound 0.0316 µM
[2] = second compound 0.1 µM, first compound 0.1 µM
[3] = second compound 0.1 µM, first compound 0.316 µM
[4] = second compound 0.1 µM, first compound 1 µM
[5] = second compound 0.1 µM, first compound 3.16 µM
[6] = second compound 0.1 µM, first compound 10 µM
[7] = second compound 0.316 µM, first compound 0.0316 µM
[8] = second compound 0.316 µM, first compound 0.1 µM
[9] = second compound 0.316 µM, first compound 0.316 µM
[10] = second compound 0.316 µM, first compound 1 µM
[11] = second compound 0.316 µM, first compound 3.16 µM
[12] = second compound 0.316 µM, first compound 10 µM
[13] = second compound 1 µM, first compound 0.0316 µM
[14] = second compound 1 µM, first compound 0.1 µM
[15] = second compound 1 µM, first compound 0.316 µM
[16] = second compound 1 µM, first compound 1 µM
[17] = second compound 1 µM, first compound 3.16 µM
[18] = second compound 1 µM, first compound 10 µM
[19] = second compound 3.16 µM, first compound 0.0316 µM
[20] = second compound 3.16 µM, first compound 0.1 µM
[21] = second compound 3.16 µM, first compound 0.316 µM
[22] = second compound 3.16 µM, first compound 1 µM
[23] = second compound 3.16 µM, first compound 3.16 µM
[24] = second compound 3.16 µM, first compound 10 µM
[25] = second compound 10 µM, first compound 0.0316 µM
[26] = second compound 10 µM, first compound 0.1 µM
[27] = second compound 10 µM, first compound 0.316 µM
[28] = second compound 10 µM, first compound 1 µM
[29] = second compound 10 µM, first compound 3.16 µM
[30] = second compound 10 µM, first compound 10 µM
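Further: spheroids exposed to compounds for seven days before readout.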
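Wherever viability, T/C is given: 100% = DMSO vehicle control luminescence of the spheroids.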

Row | Compound | IC50 (second compound 0.1 µM) [nM] | IC50 (second compound 0.316 µM) [nM] | IC50 (second compound 1 µM) [nM] | IC50 (second compound 3.16 µM) [nM] | IC50 (second compound 10 µM) [nM] | viability, T/C [1] [%] | viability, T/C [2] [%] | viability, T/C [3] [%] | viability, T/C [4] [%] | viability, T/C [5] [%] | viability, T/C [6] [%] | viability, T/C [7] [%] | viability, T/C [8] [%] | viability, T/C [9] [%] | viability, T/C [13] [%] | viability, T/C [14] [%] | viability, T/C [19] [%] | viability, T/C [20] [%] | viability, T/C [25] [%] | viability, T/C [26] [%] | also measured
1 | CC1(C)CCC(CN2CCN(c3ccc(C(=O)NS(=O)(=O)c4ccc(NCC5CCOCC5)c([N+](=O)[O-])c4)c(Oc4cnc5[nH]ccc5c4)c3)CC2)=C(c2ccc(Cl)cc2)C1 + CC1OCC2(CCN(c3cnc(Sc4ccnc(N)c4Cl)c(N)n3)CC2)C1N | > 10000 | > 10000 | > 10000 | 5560 | 2510 | 100 | 104 | 96.7 | 100 | 97.1 | 98.4 | 83.8 | 91 | 84.3 | 85.1 | 89.5 | 65.3 | 73.9 | 64.1 | 66.1 | viability, T/C [10]: 84.1%; viability, T/C [11]: 84.3%; viability, T/C [12]: 65.7%; viability, T/C [15]: 78.6%; viability, T/C [16]: 88.6%; viability, T/C [17]: 80.7%; viability, T/C [18]: 54%; viability, T/C [21]: 65.3%; viability, T/C [22]: 69%; viability, T/C [23]: 66.3%; viability, T/C [24]: 33%; viability, T/C [27]: 69.8%; viability, T/C [28]: 62.2%; viability, T/C [29]: 46.6%; viability, T/C [30]: 3.55%
2 | COc1cc(Nc2ncc3c(n2)-c2ccc(Cl)cc2C(c2c(F)cccc2OC)=NC3)ccc1C(=O)O + C=CC(=O)N1CCN(c2nc(=O)n(-c3c(C)ccnc3C(C)C)c3nc(-c4c(O)cccc4F)c(F)cc23)C(C)C1 | 89.7 | 107 | 59.2 | 110 | 122 | 86 | 40 | 32.7 | 28.6 | 18.9 | 9.83 | 86.7 | 45.4 | 35 | 56.4 | 43.1 | 77.6 | 45 | 93.3 | 47.6 | viability, T/C [10]: 28.8%; viability, T/C [11]: 19.5%; viability, T/C [12]: 10.7%; viability, T/C [15]: 36.6%; viability, T/C [16]: 29.3%; viability, T/C [17]: 21.4%; viability, T/C [18]: 12.3%; viability, T/C [21]: 39.1%; viability, T/C [22]: 29.1%; viability, T/C [23]: 19.2%; viability, T/C [24]: 13.6%; viability, T/C [27]: 38.4%; viability, T/C [28]: 32.4%; viability, T/C [29]: 22.4%; viability, T/C [30]: 17.5%
3 | CN(C)C/C=C/C(=O)Nc1cc2c(Nc3ccc(F)c(Cl)c3)ncnc2cc1O[C@H]1CCOC1 + C=CC(=O)N1CCN(c2nc(=O)n(-c3c(C)ccnc3C(C)C)c3nc(-c4c(O)cccc4F)c(F)cc23)C(C)C1 | > 100 | > 100 | > 100 | > 100 | > 100 | 97.2 | 93 | – | – | – | – | 93.4 | 75.2 | – | 83.6 | 73.5 | 100 | 82.5 | 95.6 | 74.4 | viability, T/C (second compound 0.1 µM, first compound 0.000316 µM): 110%; viability, T/C (second compound 0.1 µM, first compound 0.001 µM): 103%; viability, T/C (second compound 0.1 µM, first compound 0.00316 µM): 99.5%; viability, T/C (second compound 0.1 µM, first compound 0.01 µM): 93.8%; viability, T/C (second compound 0.316 µM, first compound 0.000316 µM): 104%; viability, T/C (second compound 0.316 µM, first compound 0.001 µM): 102%; viability, T/C (second compound 0.316 µM, first compound 0.00316 µM): 96.5%; viability, T/C (second compound 0.316 µM, first compound 0.01 µM): 89.6%; viability, T/C (second compound 1 µM, first compound 0.000316 µM): 99.5%; viability, T/C (second compound 1 µM, first compound 0.001 µM): 108%; viability, T/C (second compound 1 µM, first compound 0.00316 µM): 86.1%; viability, T/C (second compound 1 µM, first compound 0.01 µM): 87.2%; viability, T/C (second compound 3.16 µM, first compound 0.000316 µM): 101%; viability, T/C (second compound 3.16 µM, first compound 0.001 µM): 98.7%; viability, T/C (second compound 3.16 µM, first compound 0.00316 µM): 87.1%; viability, T/C (second compound 3.16 µM, first compound 0.01 µM): 93.8%; viability, T/C (second compound 10 µM, first compound 0.000316 µM): 109%; viability, T/C (second compound 10 µM, first compound 0.001 µM): 99.3%; viability, T/C (second compound 10 µM, first compound 0.00316 µM): 91.9%; viability, T/C (second compound 10 µM, first compound 0.01 µM): 94.6%
